In ChEMBL document CHEMBL1201862, “PubChem BioAssay data set” (2004):
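The compound was tested at five concentrations on cells cultured in 96-well plates, with a 48-hour exposure period. GI50 marks 50% less growth.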 Activity calls are given as the source filed them. No stated cut-off is given here; in the data, active = GI50 up to about 1.1 µM and inactive = higher.

Columns and labels:
Experiment in all cases: DTP human tumour cell line panel, 48 h
KM12 = tested on: KM12
SF-539 = tested on: SF-539
OVCAR-8 = tested on: OVCAR-8
MCF7 = tested on: MCF7
NCI/ADR-RES = tested on: NCI/ADR-RES
A549 = tested on: A549
HCT-116 = tested on: HCT-116
K562 = tested on: K562
U-251 = tested on: U-251
HOP-92 = tested on: HOP-92
Hs-578T = tested on: Hs-578T
HCT-15 = tested on: HCT-15
OVCAR-4 = tested on: OVCAR-4
SNB-19 = tested on: SNB-19
NCI-H460 = tested on: NCI-H460
CAKI-1 = tested on: CAKI-1
PC-3 = tested on: PC-3
RPMI-8226 = tested on: RPMI-8226
UO-31 = tested on: UO-31
HCC 2998 = tested on: HCC 2998

| SMILES | GI50 (KM12) | GI50 (SF-539) | GI50 (OVCAR-8) | GI50 (MCF7) | GI50 (NCI/ADR-RES) | GI50 (A549) | GI50 (HCT-116) | GI50 (K562) | GI50 (U-251) | GI50 (HOP-92) | GI50 (Hs-578T) | GI50 (HCT-15) [µM] | GI50 (OVCAR-4) | GI50 (SNB-19) | GI50 (NCI-H460) | GI50 (CAKI-1) | GI50 (PC-3) | GI50 (RPMI-8226) | GI50 (UO-31) | GI50 (HCC 2998) |
| --- | --- | --- | --- | --- | --- | --- | --- | --- | --- | --- | --- | --- | --- | --- | --- | --- | --- | --- | --- | --- |
| CC(C)(C)OC(=O)CN1CCNCCNCC1 | > 100 µM (inactive) | > 100 µM (inactive) | > 100 µM (inactive) | > 100 µM (inactive) | > 100 µM (inactive) | > 100 µM (inactive) | > 100 µM (inactive) | > 100 µM (inactive) | > 100 µM (inactive) | > 100 µM (inactive) | > 100 µM (inactive) | > 100 | > 100 µM (inactive) | > 100 µM (inactive) | > 100 µM (inactive) | > 100 µM (inactive) | > 100 µM (inactive) | > 100 µM (inactive) | > 100 µM (inactive) |  |
| Cc1ccc(-c2n[nH]c(=O)n2N2C(=O)C=CC2=O)cc1 |  | > 100 µM (inactive) | > 100 µM (inactive) | > 100 µM (inactive) | > 100 µM (inactive) | > 100 µM (inactive) | > 100 µM (inactive) | > 100 µM (inactive) | > 100 µM (inactive) |  | > 100 µM (inactive) | > 100 | > 100 µM (inactive) |  | > 100 µM (inactive) | > 100 µM (inactive) | > 100 µM (inactive) |  |  | > 100 µM (inactive) |
| C=C(C)c1nc(C#N)c(N)o1 | > 100 µM (inactive) | > 100 µM (inactive) | > 100 µM (inactive) | > 100 µM (inactive) | > 100 µM (inactive) | > 100 µM (inactive) | > 100 µM (inactive) | > 100 µM (inactive) | > 100 µM (inactive) |  | > 100 µM (inactive) | > 100 | > 100 µM (inactive) | > 100 µM (inactive) | > 100 µM (inactive) | > 100 µM (inactive) | > 100 µM (inactive) | > 100 µM (inactive) | > 100 µM (inactive) | > 100 µM (inactive) |
| COc1ccc(/C=N/n2c(Cc3ccccc3)n[nH]c2=O)cc1 | > 100 µM (inactive) | > 100 µM (inactive) | > 100 µM (inactive) | > 100 µM (inactive) | > 100 µM (inactive) | > 100 µM (inactive) | > 100 µM (inactive) | > 100 µM (inactive) | 37 µM (inactive) |  | 32.3 µM (inactive) | > 100 | > 100 µM (inactive) | 70.6 µM (inactive) | > 100 µM (inactive) | > 100 µM (inactive) | > 100 µM (inactive) | > 100 µM (inactive) | > 100 µM (inactive) | > 100 µM (inactive) |
| c1ccc(-c2nc(-c3ccccc3SSc3ccccc3-c3nc(-c4ccccc4)nn3-c3ccccc3)n(-c3ccccc3)n2)cc1 | > 100 µM (inactive) | > 100 µM (inactive) | > 100 µM (inactive) | > 100 µM (inactive) | > 100 µM (inactive) | > 100 µM (inactive) | > 100 µM (inactive) | > 100 µM (inactive) | > 100 µM (inactive) | > 100 µM (inactive) | > 100 µM (inactive) | > 100 |  | > 100 µM (inactive) | > 100 µM (inactive) | > 100 µM (inactive) | > 100 µM (inactive) | > 100 µM (inactive) | > 100 µM (inactive) | > 100 µM (inactive) |
| CSC1=NN(c2ccccc2)C(=O)C1=C(SC)SC | 31.6 µM (inactive) | 21.7 µM (inactive) | 21.5 µM (inactive) | 19.2 µM (inactive) | 18.4 µM (inactive) | 20 µM (inactive) | 16.7 µM (inactive) | 20.1 µM (inactive) | 22.2 µM (inactive) |  | 18.1 µM (inactive) | 20.1 | 19.4 µM (inactive) | 23.2 µM (inactive) | 14.2 µM (inactive) | 20 µM (inactive) | 15.1 µM (inactive) | 14.3 µM (inactive) | 12.1 µM (inactive) | 25.6 µM (inactive) |
| COC(=O)[C@H](C)N(C)C(=O)[C@H](C)N1[C@@H](c2ccccc2)COC1(C)C | > 100 µM (inactive) | > 100 µM (inactive) | > 100 µM (inactive) | > 100 µM (inactive) | > 100 µM (inactive) | > 100 µM (inactive) | > 100 µM (inactive) | > 100 µM (inactive) | > 100 µM (inactive) | > 100 µM (inactive) | > 100 µM (inactive) | > 100 | > 100 µM (inactive) | > 100 µM (inactive) | > 100 µM (inactive) | > 100 µM (inactive) | > 100 µM (inactive) | > 100 µM (inactive) | > 100 µM (inactive) |  |
